# Assay results reported in patent US6689773B2, “Uracil substituted phenyl sulfamoyl carboxamides” (BASF Aktiengesellschaft, priority 2000, dated 2004).
# Columns and labels:
# Type in all cases: in vivo
# [1] = test system: SETVI, Green foxtail, Setaria viridis, (L.)Beau; experiment: Preemergence herbicidal evaluation (Example 148); conditions: rating scale 0-9, two to four weeks after treatment
# Method: (§1) The scale is based upon a visual observation of plant stand, vigor, malformation, size, chlorosis and overall plant appearance as compared with a control.
# (§2) The herbicidal activity of the compounds of the present invention was evaluated by the following tests wherein the seeds of a variety of monocotyledonous and dicotyledonous plants were separately mixed with potting soil and planted on top of approximately one inch of soil in separate pint cups. After planting, the cups were sprayed with the selected aqueous acetone solution containing test compound in sufficient quantity to provide the equivalent of about 0.125 to 0.250 kg per hectare of test compound per cup. The treated cups were then placed on greenhouse benches, watered and cared for in accordance with conventional greenhouse procedures. From two to four weeks after treatment, the tests were terminated and each cup was examined and rated according to the rating system provided in Example 94. When more than one test was performed for a given compound, the data were averaged.
# [2] = test system: IPOHE, Morningglory, Ivyleaf, Ipomoea hederacea, (L)Jacq.; experiment: Preemergence herbicidal evaluation (Example 148); conditions: rating scale 0-9, two to four weeks after treatment
# Method: as §1, §2
# [3] = test system: ALOMY, Blackgrass, Alopecurus myosuroides; experiment: Preemergence herbicidal evaluation (Example 148); conditions: rating scale 0-9, two to four weeks after treatment
# Method: as §1, §2
# [4] = test system: ABUTH, Velvetleaf, Abutilon theophrasti, Medic.; experiment: Preemergence herbicidal evaluation (Example 148); conditions: rating scale 0-9, two to four weeks after treatment
# Method: as §1, §2
# [5] = test system: TRZAW, Winter wheat, Tritium Aestivum, L. (Winter); experiment: Preemergence herbicidal evaluation (Example 148); conditions: rating scale 0-9, two to four weeks after treatment
# Method: as §1, §2
# [6] = test system: GLXMA, Soybean, Glycine max, (L.) Merr.; experiment: Preemergence herbicidal evaluation (Example 148); conditions: rating scale 0-9, two to four weeks after treatment
# Method: as §1, §2
# [7] = test system: ECHCG, Barnyardgrass, Echinochloa crusgalli, (L.)Beau; experiment: Preemergence herbicidal evaluation (Example 148); conditions: rating scale 0-9, two to four weeks after treatment
# Method: as §1, §2
# [8] = test system: CHEAL, Lambsquarters, Chenopodium album, L. Common; experiment: Preemergence herbicidal evaluation (Example 148); conditions: rating scale 0-9, two to four weeks after treatment
# Method: as §1, §2
# [9] = test system: DIGSA, Crabgrass, (Hairy) L, Digitaria sanguinalis, (L)Scop; experiment: Preemergence herbicidal evaluation (Example 148); conditions: rating scale 0-9, two to four weeks after treatment
# Method: as §1, §2
# [10] = test system: ZEAMX, Field corn, Zea mays L.; experiment: Preemergence herbicidal evaluation (Example 148); conditions: rating scale 0-9, two to four weeks after treatment
# Method: as §1, §2
# [11] = test system: AMBEL, Ragweed, Common, Ambrosia artemiisifolia, L.; experiment: Preemergence herbicidal evaluation (Example 148); conditions: rating scale 0-9, two to four weeks after treatment
# Method: as §1, §2
# [12] = test system: SETVI, Green foxtail, Setaria viridis, (L.)Beau; experiment: Postemergence herbicidal evaluation (Example 147); conditions: rating scale 0-9, two to three weeks after treatment
# Method: (§3) Seedling plants were grown in jiffy flats for about two weeks. The test compounds were dispersed in 80/20 acetone/water mixtures containing 1.0% SUN-IT®II, a methylated seed oil, in sufficient quantities to provide the equivalent of about 0.016 to 0.032 kg per hectare of active compound when applied to the plants through a spray nozzle operating at 40 psi for a predetermined time. After spraying, the plants were placed on greenhouse benches and were cared for in accordance with conventional greenhouse procedures. Approximately two to three weeks after treatment, the seedling plants were examined and rated according to the rating scale (0-9) set forth below. Where more than one test is involved for a given compound, the data are averaged. [table] The scale is based upon a visual observation of plant stand, vigor, malformation, size, chlorosis and overall plant appearance as compared with a control. Plant species employed in these evaluations are reported by header abbreviation, common name and scientific name. [table]
# [13] = test system: IPOHE, Morningglory, Ivyleaf, Ipomoea hederacea, (L)Jacq.; experiment: Postemergence herbicidal evaluation (Example 147); conditions: rating scale 0-9, two to three weeks after treatment
# Method: as §3
# [14] = test system: ALOMY, Blackgrass, Alopecurus myosuroides; experiment: Postemergence herbicidal evaluation (Example 147); conditions: rating scale 0-9, two to three weeks after treatment
# Method: as §3
# [15] = test system: ABUTH, Velvetleaf, Abutilon theophrasti, Medic.; experiment: Postemergence herbicidal evaluation (Example 147); conditions: rating scale 0-9, two to three weeks after treatment
# Method: as §3
# [16] = test system: TRZAW, Winter wheat, Tritium Aestivum, L. (Winter); experiment: Postemergence herbicidal evaluation (Example 147); conditions: rating scale 0-9, two to three weeks after treatment
# Method: as §3
# [17] = test system: GLXMA, Soybean, Glycine max, (L.) Merr.; experiment: Postemergence herbicidal evaluation (Example 147); conditions: rating scale 0-9, two to three weeks after treatment
# Method: as §3
# [18] = test system: ECHCG, Barnyardgrass, Echinochloa crusgalli, (L.)Beau; experiment: Postemergence herbicidal evaluation (Example 147); conditions: rating scale 0-9, two to three weeks after treatment
# Method: as §3
# [19] = test system: CHEAL, Lambsquarters, Chenopodium album, L. Common; experiment: Postemergence herbicidal evaluation (Example 147); conditions: rating scale 0-9, two to three weeks after treatment
# Method: as §3
# [20] = test system: XANST, Cocklebur, Xanthium strumariam; experiment: Postemergence herbicidal evaluation (Example 147); conditions: rating scale 0-9, two to three weeks after treatment
# Method: as §3
# [21] = test system: DIGSA, Crabgrass, (Hairy) L, Digitaria sanguinalis, (L)Scop; experiment: Postemergence herbicidal evaluation (Example 147); conditions: rating scale 0-9, two to three weeks after treatment
# Method: as §3
# [22] = test system: ZEAMX, Field corn, Zea mays L.; experiment: Postemergence herbicidal evaluation (Example 147); conditions: rating scale 0-9, two to three weeks after treatment
# Method: as §3
# [23] = test system: AMBEL, Ragweed, Common, Ambrosia artemiisifolia, L.; experiment: Postemergence herbicidal evaluation (Example 147); conditions: rating scale 0-9, two to three weeks after treatment
# Method: as §3
compound,measurement,setting,value
CCCNS(=O)(=O)NC(=O)c1cc(-n2c(=O)cc(C(F)(F)F)n(C)c2=O)c(F)cc1Cl [Example 63],Preemergence herbicidal rating SETVI,[1]; rate 0.125 kg/ha,4.0
same,Preemergence herbicidal rating SETVI,[1]; rate 0.25 kg/ha,8.0
same,Preemergence herbicidal rating IPOHE,[2]; rate 0.125 kg/ha,9.0
same,Preemergence herbicidal rating IPOHE,[2]; rate 0.25 kg/ha,9.0
same,Preemergence herbicidal rating ALMOY,[3]; rate 0.125 kg/ha,0.0
same,Preemergence herbicidal rating ALMOY,[3]; rate 0.25 kg/ha,0.0
same,Preemergence herbicidal rating ABUTH,[4]; rate 0.125 kg/ha,9.0
same,Preemergence herbicidal rating ABUTH,[4]; rate 0.25 kg/ha,9.0
same,Preemergence herbicidal rating TRZAW,[5]; rate 0.125 kg/ha,0.0
same,Preemergence herbicidal rating TRZAW,[5]; rate 0.25 kg/ha,0.0
same,Preemergence herbicidal rating GLXMA,[6]; rate 0.125 kg/ha,1.0
same,Preemergence herbicidal rating GLXMA,[6]; rate 0.25 kg/ha,5.0
same,Preemergence herbicidal rating ECHCG,[7]; rate 0.125 kg/ha,4.0
same,Preemergence herbicidal rating ECHCG,[7]; rate 0.25 kg/ha,9.0
same,Preemergence herbicidal rating CHEAL,[8]; rate 0.125 kg/ha,9.0
same,Preemergence herbicidal rating CHEAL,[8]; rate 0.25 kg/ha,9.0
same,Preemergence herbicidal rating DIGSA,[9]; rate 0.125 kg/ha,3.0
same,Preemergence herbicidal rating DIGSA,[9]; rate 0.25 kg/ha,8.0
same,Preemergence herbicidal rating ZEAMX,[10]; rate 0.125 kg/ha,0.0
same,Preemergence herbicidal rating ZEAMX,[10]; rate 0.25 kg/ha,0.0
same,Preemergence herbicidal rating AMBEL,[11]; rate 0.125 kg/ha,9.0
same,Preemergence herbicidal rating AMBEL,[11]; rate 0.25 kg/ha,9.0
same,Postemergence herbicidal rating SETVI,[12]; rate 0.016 kg/ha,7.0
same,Postemergence herbicidal rating SETVI,[12]; rate 0.032 kg/ha,9.0
same,Postemergence herbicidal rating IPOHE,[13]; rate 0.016 kg/ha,9.0
same,Postemergence herbicidal rating IPOHE,[13]; rate 0.032 kg/ha,9.0
same,Postemergence herbicidal rating ALMOY,[14]; rate 0.016 kg/ha,2.0
same,Postemergence herbicidal rating ALMOY,[14]; rate 0.032 kg/ha,2.0
same,Postemergence herbicidal rating ABUTH,[15]; rate 0.016 kg/ha,9.0
same,Postemergence herbicidal rating ABUTH,[15]; rate 0.032 kg/ha,9.0
same,Postemergence herbicidal rating TRZAW,[16]; rate 0.016 kg/ha,6.0
same,Postemergence herbicidal rating TRZAW,[16]; rate 0.032 kg/ha,7.0
same,Postemergence herbicidal rating GLXMA,[17]; rate 0.016 kg/ha,8.0
same,Postemergence herbicidal rating GLXMA,[17]; rate 0.032 kg/ha,8.0
same,Postemergence herbicidal rating ECHCG,[18]; rate 0.016 kg/ha,4.0
same,Postemergence herbicidal rating ECHCG,[18]; rate 0.032 kg/ha,6.0
same,Postemergence herbicidal rating CHEAL,[19]; rate 0.016 kg/ha,7.0
same,Postemergence herbicidal rating CHEAL,[19]; rate 0.032 kg/ha,9.0
same,Postemergence herbicidal rating XANST,[20]; rate 0.016 kg/ha,9.0
same,Postemergence herbicidal rating XANST,[20]; rate 0.032 kg/ha,9.0
same,Postemergence herbicidal rating DIGSA,[21]; rate 0.016 kg/ha,4.0
same,Postemergence herbicidal rating DIGSA,[21]; rate 0.032 kg/ha,4.0
same,Postemergence herbicidal rating ZEAMX,[22]; rate 0.016 kg/ha,7.0
same,Postemergence herbicidal rating ZEAMX,[22]; rate 0.032 kg/ha,8.0
same,Postemergence herbicidal rating AMBEL,[23]; rate 0.016 kg/ha,9.0
same,Postemergence herbicidal rating AMBEL,[23]; rate 0.032 kg/ha,9.0
